The test has as its target T1, Tankyrase 1 (TNKS1) (Homo sapiens, UniProt O95271).
T1 construct: gene TNKS
The test is described as follows: fluorescence-based homogeneous NAD+ consumption activity assay. It is filed as biochemical.

T1 sequence (O95271 whole entry): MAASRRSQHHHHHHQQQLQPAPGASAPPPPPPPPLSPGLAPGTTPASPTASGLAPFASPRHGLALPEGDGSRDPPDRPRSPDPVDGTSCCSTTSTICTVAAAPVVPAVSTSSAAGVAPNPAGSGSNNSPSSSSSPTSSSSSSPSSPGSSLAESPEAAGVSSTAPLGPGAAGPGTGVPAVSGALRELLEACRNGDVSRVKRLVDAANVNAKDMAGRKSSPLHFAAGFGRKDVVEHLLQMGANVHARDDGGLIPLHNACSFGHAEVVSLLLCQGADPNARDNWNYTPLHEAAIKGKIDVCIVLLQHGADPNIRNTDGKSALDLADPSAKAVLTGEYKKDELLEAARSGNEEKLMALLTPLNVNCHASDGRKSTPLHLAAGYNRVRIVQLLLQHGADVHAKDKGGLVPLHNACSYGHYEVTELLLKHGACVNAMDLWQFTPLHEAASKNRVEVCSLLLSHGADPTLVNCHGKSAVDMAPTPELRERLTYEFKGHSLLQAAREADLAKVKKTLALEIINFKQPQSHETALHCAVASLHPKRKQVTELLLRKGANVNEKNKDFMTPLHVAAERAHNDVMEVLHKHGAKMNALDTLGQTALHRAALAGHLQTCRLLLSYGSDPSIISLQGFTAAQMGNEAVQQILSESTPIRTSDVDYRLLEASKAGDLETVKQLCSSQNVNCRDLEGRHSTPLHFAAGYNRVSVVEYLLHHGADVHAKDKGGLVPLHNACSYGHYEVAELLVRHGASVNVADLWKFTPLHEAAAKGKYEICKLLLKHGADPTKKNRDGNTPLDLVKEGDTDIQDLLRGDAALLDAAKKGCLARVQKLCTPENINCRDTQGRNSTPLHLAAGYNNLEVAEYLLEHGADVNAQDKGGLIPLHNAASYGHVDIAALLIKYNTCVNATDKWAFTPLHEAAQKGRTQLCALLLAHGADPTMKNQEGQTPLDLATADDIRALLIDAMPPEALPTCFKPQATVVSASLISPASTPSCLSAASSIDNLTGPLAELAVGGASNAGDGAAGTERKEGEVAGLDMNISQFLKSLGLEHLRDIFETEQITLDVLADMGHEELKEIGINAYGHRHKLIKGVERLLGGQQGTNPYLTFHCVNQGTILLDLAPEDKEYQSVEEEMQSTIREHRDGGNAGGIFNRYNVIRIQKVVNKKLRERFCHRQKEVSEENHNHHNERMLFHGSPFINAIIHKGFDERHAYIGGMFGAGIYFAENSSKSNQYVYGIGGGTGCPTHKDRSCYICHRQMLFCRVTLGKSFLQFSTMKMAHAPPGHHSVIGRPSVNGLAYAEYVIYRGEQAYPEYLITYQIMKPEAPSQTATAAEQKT

Consider `COc1ccc(-n2c(SCCCN3C(=O)c4cccc5cccc(c45)C3=O)nnc2-c2ccncc2)cc1` [WIKI4], for which half-maximal inhibition (IC50) required 26 nM.

What is called IC50 is the midpoint of a concentration-inhibition curve. A high value points to lower potency.

Values taken from article PMC3675114, “Structural Basis and Selectivity of Tankyrase Inhibition by a Wnt Signaling Inhibitor WIKI4” (PLoS ONE, 2013).
